Laboratory results taken from US20080248470A1, “GENETIC SCREENING FOR PREDICTING ANTIDEPRESSANT DRUG RESPONSE BASED ON THE MONOAMINE TRANSPORTER GENE POLYMORPHISM COMBINATION” (SUNGKYUNKWAN UNIVERSITY Foundation for Corporate …, priority 2007, published 2008).
Values joined by “and” are separate entries in the source; they are usually repeats but may differ in a detail not shown here. Equal entries are not always repeated. Where two headings read alike, the source gives them in different places.

Tests used:
[1] = tested on: patients with major depressive episode; conditions: for change in depression score (HAM-D), FIG. 2: after 6 weeks
Experimental: In the present invention, experiments were conducted on patients other than the patient group of a prior report (reference 6). The patient subjects who participated in the experiments of the present invention were all […] and were enrolled in the Clinical Trials Program of the Samsung Medical Center Geropsychiatry and Affective Disorder Clinics (Seoul Korea). The affective disorder section of the Samsung Psychiatric Evaluation Schedule (SPES) uses the Korean version of the Structured Clinical Interview for DSM-IV Axis-I disorders (SCID-IV; 4th edition, reference 17).
In the present invention, at least one family member who is living with the patient was interviewed to supplement the patient's report of symptoms, behaviors, level of functioning, duration of episode, and recent treatments. The patient subjects who participated in the experiments of the present invention all fulfilled DSM-IV criteria for major depressive episode, the Korean version of the Structured Clinical Interview for DSM-IV Axis-I disorders (4th edition). Diagnoses were confirmed by a board certified psychiatrist on the basis of the SPES, case review notes, and other relevant data. A minimum baseline 17-item Hamilton depression scale (HAM-D) score of 15 was required.
Patient subjects, who received other psychotropic medications within 2 weeks of the study or fluoxetine within 4 weeks, were excluded. In the present invention, potential subjects were excluded for pregnancy, significant medical conditions, abnormal laboratory baseline values, unstable psychiatric features (e.g., suicidality), history of alcohol or drug dependence, seizures, head trauma with loss of consciousness, neurologic illness, or concomitant Axis I psychiatric disorder. The protocol was approved by the ethics review board of Samsung Medical Center, Seoul, Korea. Signed informed consent was obtained from all participants.
Dose titration was completed within 2 weeks.
Remission was defined as a HAM-D of less than 8 at 6 weeks (reference 19).
In the present invention, 208 patients (86% of the original participants) completed the six-week treatment trial. Sixteen patients receiving NRI treatment and 17 patients receiving SSRI treatment dropped out. […] Ten patients were excluded, either because their plasma drug concentrations were undetectable, consistent with noncompliance (N=6) or were in the range consistent with extensive drug metabolism (<200 ng/ml norfluoxetine-fluoxetine and <30 ng/ml sertraline, N=4) (reference 20). […] These 33 dropouts were excluded in data analyses.
Genomic DNA was extracted from whole blood using a Wizard Genomic Purification kit (Promega, Madison, Wis., USA). The present inventors analyzed the genotype of the 5-HTT promoter s/l polymorphism (5-HTTLPR), the genotype of the 5-HTT intron 2 s/l polymorphism, and the NET G1287A polymorphism in exon 9. For this purpose, the G1287A polymorphism in exon 9 was amplified by PCR with primers of SEQ ID NO: 1 and SEQ ID NO: 2 and digested by restriction enzyme Sau96I.

[2] = plasma drug levels by HPLC-MS/MS, trough samples at end of week 4

| SMILES | Response rate ([1]; 5-HTT promoter (5-HTTLPR) ss genotype, 6 weeks, listed as NRI) | Response rate ([1]; NET A carrier + 5-HTT promoter l carrier, any intron 2 genotype) [%] | Response rate ([1]; NET A carrier + 5-HTT promoter ss, any intron 2 genotype) [%] | Response rate ([1]; NET G1287A AA genotype, 6 weeks) | Response rate ([1]; NET G1287A GA genotype, 6 weeks) | Response rate ([1]; NET G1287A GA+AA genotypes (A allele carriers), 6 weeks) [%] | Response rate ([1]; NET G1287A GA+AA genotypes (A allele carriers), 6 weeks, listed as NRI) [%] | change in depression score (HAM-D), FIG. 2 ([1]; NET G1287A GA+AA genotypes) | change in depression score (HAM-D), FIG. 2 ([1]; NET G1287A GG genotype) | Rate of remission (HAM-D of less than 8 at 6 weeks) ([1]; all patients who completed the 6-week trial) [%] | Response rate (50% or greater decrease in HAM-D score at 6 weeks) ([1]; all patients who completed the 6-week trial, listed as NRI) | expected treatment success rate when prescribed on NET G1287A examination ([1]; patient having the GG genotype) [%] | Plasma levels (mean ±SD) ([2]; non-responders) [µg/mL] | Plasma levels (mean ±SD) ([2]; responders) [µg/mL] |
| --- | --- | --- | --- | --- | --- | --- | --- | --- | --- | --- | --- | --- | --- | --- |
| CNCCC=C1c2ccccc2CCc2ccccc21 [nortriptyline] | 76% and 38/50(76.0) % | 22 | 63 | 4/6(66.7) % | 16/41(39.0) % | 43 | 42.6 | 0.11 | 0.14 | 29 | 62% and 55/89 (61.8) % | 83.35 | 0.123 ± 0.023 | 0.116 ± 0.021 |
| CN[C@H]1CC[C@@H](c2ccc(Cl)c(Cl)c2)c2ccccc21 [sertraline] |  |  |  |  |  |  |  |  |  |  |  |  | 0.072 ± 0.028 | 0.075 ± 0.029 |
